Measured values from US12642271B2, “Active compound combinations comprising a (thio)carboxamide derivative and a fungicidal compound” (Bayer CropScience Aktiengesellschaft, priority 2011, dated 2026).
Where “and” joins values, the source holds several entries; their conditions need not be identical. Equal values may be shown once. Read-outs that look alike come from different tables or passages of the source.

Key:
Alternaria solani = experiment: Alternaria test (tomatoes)/preventive; format: in vivo
Botrytis cinerea = experiment: Botrytis test (beans)/preventive
Experimental: After the spray coating has dried on, 2 small pieces of agar covered with growth of Botrytis cinerea are placed on each leaf. The inoculated plants are placed in a darkened chamber at 20° C. and a relative atmospheric humidity of 100%. 2 days after the inoculation, the size of the lesions on the leaves is evaluated.

Puccinia triticina = experiment: Puccinia triticina-test (wheat)/preventive; format: in vivo; settings: preventive, evaluated 8 days after inoculation; for pest or weed control at 20 ppm: application rate 20 ppm a.i.; for Efficacy in % found: application rate 400 ppm a.i.
Pyrenophora teres = experiment: Pyrenophora teres-test (barley)/preventive; format: in vivo; settings: preventive, evaluated 8 days after inoculation
Septoria tritici = experiment: Septoria tritici-test (wheat)/preventive; format: in vivo; settings: preventive, evaluated 21 days after inoculation
Sphaerotheca fuliginea = experiment: Sphaerotheca test (cucumbers)/preventive; format: in vivo; settings: for pest or weed control at 0.5 ppm / pest or weed control at 0.25 ppm: Podosphaera fuliginea, 168 h, read-out: Efficacy in % found; for Efficacy in % found: Table 4d; for pest or weed control at 0.25 ppm: 0.25 ppm a.i.
[1] = tested on: Blumeria graminis f.sp. hordei; experiment: Blumeria test (barley)/preventive; format: in vivo; settings: for pest or weed control at 20 ppm / pest or weed control at 10 ppm: Blumeria graminis, 168 h, read-out: Efficacy in % found
Leptosphaeria nodorum = Leptosphaeria nodorum test (wheat)/preventive; format: in vivo; settings: for pest or weed control at 80 ppm / pest or weed control at 40 ppm / pest or weed control at 10 ppm: Parastagonospora nodorum, 192 h, read-out: Efficacy in % found; for pest or weed control at 40 ppm: 40 ppm a.i.
[2] = tested on: Fusarium nivale (var. majus); experiment: Fusarium nivale (var. majus)-test (wheat)/preventive
Experimental: After the spray coating has been dried, the plants are slightly injured by using a sandblast and afterwards they are sprayed with a conidia suspension of Fusarium nivale (var. majus).
The plants are placed in the greenhouse under a translucent incubation cabinet at a temperature of approximately 10° C. and a relative atmospheric humidity of approximately 100%.
The test is evaluated 5 days after the inoculation.

Phytophthora infestans = experiment: whole plant or invertebrate; format: in vivo
Venturia inaequalis = experiment: Venturia test (apples)/preventive; settings: for pest or weed control at 0.5 ppm / pest or weed control at 0.25 ppm: Venturia inaequalis, 240 h; for pest or weed control at 0.25 ppm: 0.25 ppm a.i.
Experimental: After the spray coating has dried on, the plants are inoculated with an aqueous conidia suspension of the causal agent of apple scab (Venturia inaequalis) and then remain for 1 day in an incubation cabinet at approximately 20° C. and a relative atmospheric humidity of 100%.
The plants are then placed in a greenhouse at approximately 21° C. and a relative atmospheric humidity of approximately 90%.
The test is evaluated 10 days after the inoculation.

[3] = Puccinia triticina, 192 h, read-out: Efficacy in % found
[4] = Zymoseptoria tritici, 504 h, application rate 20 ppm a.i., read-out: Efficacy in % found
[5] = Phytophthora infestans, 72 h, read-out: Efficacy in % found
[6] = application rate 10 ppm, wheat, preventive, evaluated 8 days after inoculation
[7] = Zymoseptoria tritici, 504 h, application rate 10 ppm a.i., read-out: Efficacy in % found
[8] = Alternaria solani, 72 h, Table 3a, 0.5 ppm a.i., read-out: Efficacy in % found
[9] = Alternaria solani, 72 h, Table 3b, read-out: Efficacy in % found
[10] = Alternaria solani, 72 h, Table 3b, 0.5 ppm, read-out: Efficacy in % found
[11] = read-out: Efficacy in % found, Table 2b

CC1(C(=O)Nc2ccc(O)c(Cl)c2Cl)CCCCC1 [B1.16, fenhexamid]
pest or weed control at 50 ppm (Alternaria solani; Alternaria solani, 72 h, Table 3b, 50 ppm, read-out: Efficacy in % found): 22%
Efficacy in % found (Botrytis cinerea; Table 5a, 2.5 ppm a.i.): 51%
Efficacy in % found (Botrytis cinerea; Table 5b, 2 ppm a.i.): 0%

OC(Cc1ccccc1Cl)(Cn1nc[nH]c1=S)C1(Cl)CC1 (stereo not drawn) [B1.41, prothioconazole]
pest or weed control at 2 ppm (Alternaria solani; Alternaria solani, 72 h, Table 3c, 2 ppm, read-out: Efficacy in % found): 0%
pest or weed control at 20 ppm (Puccinia triticina; [3]): 11%
pest or weed control at 80 ppm (Puccinia triticina; Puccinia triticina, 192 h, application rate 80 ppm a.i., read-out: Efficacy in % found): 11%
Efficacy in % found (Pyrenophora teres; application rate 20 ppm a.i.): 14% and 22%
pest or weed control at 80 ppm (Septoria tritici; Zymoseptoria tritici, 504 h, application rate 80 ppm a.i., read-out: Efficacy in % found): 43%

CC(C1CC1)C(O)(Cn1cncn1)c1ccc(Cl)cc1 (stereo not drawn) [B1.5, cyproconazole]
pest or weed control at 0.5 ppm (Sphaerotheca fuliginea; Table 4c, 0.5 ppm a.i.): 30%
pest or weed control at 20 ppm ([1]; Table 6d): 78%
pest or weed control at 80 ppm (Leptosphaeria nodorum; Table 9a, 80 ppm a.i.): 29%
pest or weed control at 20 ppm (Puccinia triticina; [3]): 56%
Efficacy in % found (Pyrenophora teres; application rate 20 ppm a.i.): 0%
pest or weed control at 20 ppm (Septoria tritici; [4]): 29%

Cc1nn(C)c(F)c1C(=O)Nc1ccccc1C(C)CC(C)C (stereo not drawn) [B2.20, penflufen]
Efficacy in % found (Sphaerotheca fuliginea; 0.5 ppm a.i.): 0%
Efficacy in % found (Leptosphaeria nodorum; application rate 20 ppm, wheat, preventive, evaluated 8 days after inoculation): 0%
Efficacy in % found (Pyrenophora teres; application rate 20 ppm a.i.): 29%
Efficacy in % found (Septoria tritici; application rate 20 ppm a.i.): 29%
Efficacy in % found ([2]; Table 8a, 20 ppm): 14%
Efficacy in % found ([2]; Table 8b, 20 ppm a.i.): 29%

CO/N=C(/C1=NOCCO1)c1ccccc1Oc1ncnc(Oc2ccccc2Cl)c1F [B3.12, fluoxastrobin]
pest or weed control at 2 ppm (Phytophthora infestans; [5]): 49%
pest or weed control at 40 ppm (Leptosphaeria nodorum; Table 9a): 43%
pest or weed control at 10 ppm (Leptosphaeria nodorum; [6]): 0%
pest or weed control at 10 ppm (Septoria tritici; [7]): 14%
pest or weed control at 0.5 ppm (Venturia inaequalis; read-out: Efficacy in % found, Table 2b, 0.5 ppm a.i.): 61%
pest or weed control at 10 ppm ([2]; Microdochium nivale, in Triticum aestivum, 120 h, read-out: Efficacy in % found, Table 8c, 10 ppm a.i.): 50%
pest or weed control at 10 ppm ([2]; Microdochium nivale, in Triticum aestivum, 120 h, read-out: Efficacy in % found, Table 8e, 10 ppm a.i.): 43%

pyrimethanil [B7.7]
Efficacy in % found (Alternaria solani; Table 3b, 25 ppm): 26%
Efficacy in % found (Puccinia triticina): 11%
Efficacy in % found (Botrytis cinerea; Table 5b, 10 ppm a.i.): 24%

CC(C)c1ccccc1CN(C(=O)c1c(C(F)F)nn(C)c1F)C1CC1 [A1, N-cyclopropyl-3-(difluoromethyl)-5-fluoro-N-(2-isopropylbenzyl)-1-methyl-1H-pyrazole-4-carboxamide]
pest or weed control at 0.25 ppm (Phytophthora infestans; [5]): 0%
pest or weed control at 100 ppm (Phytophthora infestans; [5]): 0%
pest or weed control at 0.5 ppm (Alternaria solani; [8]): 38%
pest or weed control at 0.25 ppm (Alternaria solani; [9]): 53%
pest or weed control at 0.5 ppm (Alternaria solani; [10]): 59%
pest or weed control at 0.5 ppm (Alternaria solani; Alternaria solani, 72 h, Table 3c, 0.5 ppm, read-out: Efficacy in % found): 16%
pest or weed control at 0.25 ppm (Sphaerotheca fuliginea; Table 4a): 19%
pest or weed control at 0.5 ppm (Sphaerotheca fuliginea; Table 4a, 0.5 ppm a.i.): 69%
pest or weed control at 0.25 ppm (Sphaerotheca fuliginea; Table 4b): 48%
pest or weed control at 0.25 ppm (Sphaerotheca fuliginea; Table 4c): 21%
pest or weed control at 10 ppm (Leptosphaeria nodorum; Table 9a, 10 ppm a.i.): 29%
pest or weed control at 40 ppm (Leptosphaeria nodorum; Table 9a): 71%
pest or weed control at 10 ppm (Leptosphaeria nodorum; Table 9b, 10 ppm a.i.): 0%
pest or weed control at 10 ppm (Leptosphaeria nodorum; Table 9c, 10 ppm a.i.): 50%
pest or weed control at 62.5 ppm (Puccinia triticina; Puccinia triticina, 192 h, application rate 62.5 ppm a.i., read-out: Efficacy in % found): 57%
pest or weed control at 10 ppm (Septoria tritici; [7]): 50%
pest or weed control at 0.5 ppm (Venturia inaequalis; read-out: Efficacy in % found, Table 2a, 0.5 ppm a.i.): 57%
pest or weed control at 0.25 ppm (Venturia inaequalis; [11]): 31%
pest or weed control at 0.25 ppm (Venturia inaequalis; read-out: Efficacy in % found, Table 2c): 0%
pest or weed control at 0.5 ppm (Venturia inaequalis; read-out: Efficacy in % found, Table 2f, 0.5 ppm a.i.): 29%
pest or weed control at 10 ppm ([2]; Microdochium nivale, in Triticum aestivum, 120 h, read-out: Efficacy in % found, Table 8a, 10 ppm): 0%
pest or weed control at 40 ppm ([2]; Microdochium nivale, in Triticum aestivum, 120 h, read-out: Efficacy in % found, Table 8a, 40 ppm): 29%

metalaxyl [B12.9]
Efficacy in % found (Phytophthora infestans; Table 1a, 5 ppm a.i.): 18%
Efficacy in % found (Leptosphaeria nodorum; Table 9c, 100 ppm a.i.): 33%
Efficacy in % found (Leptosphaeria nodorum; application rate 400 ppm a.i., wheat, preventive, evaluated 8 days after inoculation): 0%
Efficacy in % found (Puccinia triticina): 11%
Efficacy in % found (Septoria tritici; application rate 100 ppm a.i.): 10%

fludioxonil [B13.3]
Efficacy in % found ([1]; Table 6e, 100 ppm a.i.): 0%
Efficacy in % found ([1]; Table 6f, 400 ppm a.i.): 13%
Efficacy in % found (Puccinia triticina): 0%
Efficacy in % found (Botrytis cinerea; Table 5a, 2.5 ppm a.i.): 53%
Efficacy in % found (Botrytis cinerea; Table 5b, 0.5 ppm a.i.): 0%

Cc1ccc(C(C)NC(=O)[C@@H](NC(=O)OC(C)C)C(C)C)cc1 (stereo partly drawn) [B9.4, iprovalicarb]
Efficacy in % found (Phytophthora infestans; Table 1a, 5 ppm a.i.): 48%
Efficacy in % found ([1]; Table 6e, 100 ppm a.i.): 0%
Efficacy in % found (Pyrenophora teres; application rate 100 ppm a.i.): 33%

CO/C=C(/C(=O)OC)c1ccccc1Oc1cc(Oc2ccccc2C#N)ncn1 [B3.3, azoxystrobin]
Efficacy in % found (Phytophthora infestans; Table 1b, 1 ppm a.i.): 50%
Efficacy in % found (Sphaerotheca fuliginea; 2 ppm a.i.): 50%
Efficacy in % found ([1]; Table 6a, 10 ppm a.i.): 0%
Efficacy in % found (Septoria tritici; application rate 10 ppm a.i.): 29%
Efficacy in % found ([2]; Table 8e, 40 ppm a.i.): 0%

Cn1cc(C(=O)Nc2ccccc2C2CC2C2CC2)c(C(F)F)n1 (stereo not drawn) [B2.22, sedaxane]
Efficacy in % found (Leptosphaeria nodorum; Table 9a, 80 ppm a.i.): 0%
Efficacy in % found (Pyrenophora teres; application rate 20 ppm a.i.): 0%
Efficacy in % found (Septoria tritici; application rate 20 ppm a.i.): 14%
Efficacy in % found (Venturia inaequalis; Table 2d, 0.5 ppm a.i.): 53%
Efficacy in % found ([2]; Table 8e, 80 ppm a.i.): 0%

O=C(NCCc1ncc(C(F)(F)F)cc1Cl)c1ccccc1C(F)(F)F [B2.6, fluopyram]
pest or weed control at 20 ppm ([1]; Table 6d): 11%
pest or weed control at 80 ppm (Leptosphaeria nodorum; Table 9a, 80 ppm a.i.): 0%
pest or weed control at 80 ppm (Leptosphaeria nodorum; application rate 80 ppm, wheat, preventive, evaluated 8 days after inoculation): 0%
Efficacy in % found (Pyrenophora teres; application rate 20 ppm a.i.): 57%
pest or weed control at 20 ppm (Septoria tritici; [4]): 57%

Cn1nc(C(F)F)c(C(=O)N(Cc2c(C(F)(F)F)ccc(Cl)c2F)C2CC2)c1F [A18, N-[3-chloro-2-fluoro-6-(trifluoromethyl)benzyl]-N-cyclopropyl-3-(difluoromethyl)-5-fluoro-1-methyl-1H-pyrazole-4-carboxamide]
pest or weed control at 0.25 ppm (Phytophthora infestans; [5]): 0%
pest or weed control at 100 ppm (Phytophthora infestans; [5]): 32%
pest or weed control at 0.5 ppm (Alternaria solani; [8]): 30%
pest or weed control at 0.25 ppm (Alternaria solani; [9]): 30%
pest or weed control at 0.5 ppm (Alternaria solani; [10]): 43%
pest or weed control at 0.25 ppm (Sphaerotheca fuliginea; Table 4c): 13%
pest or weed control at 10 ppm ([1]; Table 6e, 10 ppm a.i.): 29%
pest or weed control at 10 ppm ([1]; Table 6d, 10 ppm): 56%
pest or weed control at 10 ppm (Leptosphaeria nodorum; [6]): 0%
pest or weed control at 10 ppm (Puccinia triticina; Puccinia triticina, 192 h, application rate 10 ppm a.i., read-out: Efficacy in % found): 33%
pest or weed control at 10 ppm (Septoria tritici; [7]): 89%
pest or weed control at 0.25 ppm (Venturia inaequalis; [11]): 0%
pest or weed control at 10 ppm ([2]; Microdochium nivale, in Triticum aestivum, 120 h, read-out: Efficacy in % found, Table 8b, 10 ppm a.i.): 43%
